The source of these data is patent US20110152302A1, “Novel dicyclanil-based shelf stable aqueous suspension and non-aqueous solution pour-on and spray-on formulations useful for the prevention and treatment of insect infestation in animals” (priority 2009, published 2011).

Data set [1] in a line: Dicyclanil crystal formation in water with 5% surfactant. It is filed as physicochemical. How it is done: A commercially manufactured batch of Dicyclanil Polymorph A was sourced. This crystalline form was confirmed by X-Ray Diffraction (FIG. 1). Studies were then conducted to determine the ability of various surfactants to prevent the growth of dicyclanil crystals suspended in water. Nonyl phenol and octyl phenol ethoxylates were tested in an aqueous medium according to TABLE 2.
Given the inability of the surfactants of TABLE 2 to prevent crystal growth, a further range of surfactants was tested.

A short description of data set [2]: Maximum solubility of dicyclanil in non-aqueous solvents. It is filed as physicochemical. How it is done:
(§1) Materials and Methods: To determine the range of potential non-aqueous solvents to be used in producing dicyclanil solution formulations, a range of solubility studies were performed. The method employed was to add 500 mg quantities of dicyclanil into 10 mL each of solvent. If the drug dissolved it was placed into the refrigerator overnight. Samples were then taken out of the refrigerator and checked for the emergence of precipitate after the sample had been returned to room temperature. Thereafter, dicyclanil was added to each solution, 100 mg each time, until no more dicyclanil would dissolve in the solvent (i.e. dicyclanil was added until the solution reached its saturation concentration for dicyclanil).
Results: An initial range of solvents was obtained (TABLE 12).

The nature of data set [3]: Solubility of dicyclanil in solvents at 25° C. It is filed as physicochemical. How it is done: as §1
As a result, a further range of solvents was tested. The solvents used for these solubility studies are defined in TABLE 13.

Data set [4] can be described thus: Solubility of dicyclanil in solvents at 70° C. It is filed as physicochemical.
Data set [5] can be described thus: Stability of dicyclanil 5% PEG200 solutions, refrigerated and accelerated temperature, 5 days. The class given is physicochemical. How it is done:
Materials and Methods: A formulation was prepared in the following manner (concentration summarized in TABLE 16): • a) Loaded 90% PEG 200 • b) Added Dicyclanil with mixing • c) Made to volume with PEG 200 • d) Mixed until dissolved
Several test formulations were made to determine their stability under refrigerated (2-8° C.) and accelerated temperature (70° C.) conditions for 5 days. DIC 021, 022 and 025 were prepared according to the method described above.

The conditions of data set [6]: more active than cyromazine; cited from earlier work.
Setting [7] is: water with 5% surfactant, Most = >90%.

SMILES strings stand for the structures.

Regarding `N#Cc1c(N)nc(NC2CC2)nc1N` [Dicyclanil, 4,6-diamino-2-(cyclopropylamino)-5-pyrimidinecarbonitrile], the “Dicyclanil Crystal Formation, 3 days” value in data set [1] (water, No surfactant added) was “Large crystals up to 200μ”. The “Dicyclanil Crystal Formation, Initial” value in data set [1] (water, No surfactant added) is on record as “Long thin, up to 200μ”. In addition, the solubility in words entry in data set [2] (many of the commonly used veterinary topical solvents (TABLE 12)) was “quite insoluble”; in data set [3] (Isopropyl Alcohol, Benzyl Alcohol, Ethyl Lactate, Propylene Glycol, Diethylene Glycol monobutyl Ether), “quite insoluble”. Also, the “Maximum solubility (% w/v)” value was 1% w/v in data set [2] (solvent 2-Pyrollidone); less than 1% w/v in data set [2] (solvent Benzyl Alcohol); 2% w/v in data set [2] (solvent DGBE); 6% w/v in data set [2] (solvent Glycofurol); less than 1% w/v in data set [2] (solvent IPM); less than 1% w/v in data set [2] (solvent MIGLYOL 810). In addition, the “Maximum solubility (% w/v)” value in data set [2] (solvent MIGLYOL 840) is on record as less than 1% w/v; in data set [2] (solvent NMP) it was 4% w/v; in data set [2] (solvent Propylene Glycol), 1% w/v. In addition, the “solubility of dicyclanil, soluble at 5%” value in data set [3] (25° C., BA) is “less”; in data set [3] (25° C., DGBE) it was “less”; in data set [3] (25° C., DGMEE) it was “less”; in data set [3] (25° C., DMA) it was “✓”; in data set [3] (25° C., DMSO), “✓”; in data set [3] (25° C., EL), “less”. For the same molecule, the “solubility of dicyclanil, soluble at 5%” value in data set [3] (25° C., GF) is given as “less”; in data set [3] (25° C., IPA), “less”; in data set [3] (25° C., PEG200), “✓”; in data set [3] (25° C., PEG400), “less”; in data set [3] (25° C., PG) it was “less”; in data set [4] (BA, 5%), “less”. Moreover, the “solubility of dicyclanil, soluble at 5%” value in data set [4] (DGBE, 5%) is “less”; in data set [4] (DGMEE, 5%), “✓”; in data set [4] (DMA, 5%), “✓”; in data set [4] (DMSO, 5%), “✓”; in data set [4] (EL, 5%) it was “✓”; in data set [4] (GF, 5%) it was “✓”. The “solubility of dicyclanil, soluble at 5%” value in data set [4] (IPA, 5%) is listed as “less”; in data set [4] (PEG400, 5%), “✓”; in data set [4] (PG, 5%) it was “less”. In addition, the “solubility of dicyclanil, soluble at 6%” value in data set [3] (25° C., DMA) is recorded as “✓”; in data set [3] (25° C., DMSO), “✓”; in data set [3] (25° C., PEG200), “✓”. Moreover, the “solubility of dicyclanil, soluble at 7%” value was “✓” in data set [3] (25° C., DMA); “✓” in data set [3] (25° C., DMSO); “✓” in data set [3] (25° C., PEG200). For the same molecule, the “solubility of dicyclanil, soluble at 8%” value in data set [3] (25° C., DMA) is “✓”; in data set [3] (25° C., DMSO), “✓”. In addition, the “solubility of dicyclanil, soluble at 9%” value is recorded as “✓” in data set [3] (25° C., DMA) and “✓” in data set [3] (25° C., DMSO). Also, the “solubility of dicyclanil, soluble at 10%” value in data set [3] (25° C., DMA, 10%) is recorded as “✓”; in data set [4] (DMA), “✓”; in data set [4] (DMSO), “✓”; in data set [4] (GF) it was “✓”. The “solubility of dicyclanil, soluble at 11%” value in data set [3] (25° C., DMA, 11%) is reported as “✓”. Also, in data set [3] (25° C., DMA, 12%), the “solubility of dicyclanil, soluble at 12%” value is “✓”. Also, in data set [3] (25° C., DMA, 13%), the “solubility of dicyclanil, soluble at 13%” value is listed as “✓”. For the same molecule, the “solubility of dicyclanil, soluble at 14%” value in data set [3] (25° C., DMA, 14%) is listed as “✓”. Moreover, the “solubility of dicyclanil, soluble at 15%” value in data set [3] (25° C., DMA, 15%) is given as “✓”; in data set [4] (DMA) it was “✓”; in data set [4] (DMSO), “✓”. Moreover, the “solubility of dicyclanil, soluble at 16%” value in data set [3] (25° C., DMA, 16%) is recorded as “✓”. For the same molecule, the “solubility of dicyclanil, soluble at 17%” value in data set [3] (25° C., DMA, 17%) was “✓”. The “solubility of dicyclanil, soluble at 18%” value in data set [3] (25° C., DMA, 18%) is listed as “✓”. In addition, the “solubility of dicyclanil in PEG200” value in data set [3] (at 25° C., PEG200) was found to be 7%. Moreover, the “solubility of dicyclanil in PEG400” value in data set [3] (at 25° C., PEG400) is given as “less than 5%”. Moreover, the “solubility of dicyclanil, soluble at 20%” value in data set [4] (DMA) and in data set [4] (DMSO) was “✓” in each case. For the same molecule, the “solubility of dicyclanil, soluble at 25%” value in data set [4] (DMA) and in data set [4] (DMSO) was “✓” each time. The “solubility in PEG (in words)” value in data set [5] (PEG) is on record as “good solubility”. Besides, the “concentration at which dicyclanil remains stable without additional excipients” value in data set [5] (PEG-based formulations) is “at least 5%”. Further, in data set [6], the “activity relative to cyromazine” value is listed as 10 times.
For `CCCCC(CC)COC(=O)CC(C(=O)OCC(CC)CCCC)S(=O)(=O)[O-].[Na+]` (centres unmarked) [Docusate sodium], in data set [1] (setting [7]), the “Dicyclanil Crystal Formation, 3 days” value is on record as “Large crystals up to 200μ” and the “Dicyclanil Crystal Formation, Initial” value was “Up to 100μ”.
On to `CCCCCCCCCCCCOS(=O)(=O)[O-].[Na+]` [Sodium lauryl sulphate], for which, in data set [1] (setting [7]), the “Dicyclanil Crystal Formation, 3 days” value is “Large crystals up to 200μ” and the “Dicyclanil Crystal Formation, Initial” value was “Mostly up to 200μ”.
